Molecules are shown by their SMILES.

Results on 23 compounds are retold here after patent US9926304B2, “1-(arylmethyl)quinazoline-2,4(1H,3H)-diones as PARP inhibitors and the use thereof” (Impact Therapeutics, Inc., priority 2011, dated 2018).

Assay [1] deals with Human breast cancer cell line T47D. Briefly: Cell based caspase-3 activity assay: potentiation of MMS induced apoptosis. As to conditions: Homo sapiens, T47D, 24 h, T47D cells, 11.1 μg/ml MMS, 24 hours, intracellular caspase-3 activity; read-out: EC50 (nM), potentiation of the apoptosis inducing activity of MMS. From the text:
Determination of the synergistic potentiation effect of 1-(3-(4-(pyrimidin-2-yl)piperazine-1-carbonyl)benzyl)quinazoline-2,4(1H,3H)-dione and analogs on MMS induced apoptosis using a cell based caspase-3 activity assay
Human breast cancer cell line T47D was used to determine the potentiation effect of PARP inhibitors on the apoptosis inducing activity of DNA damaging anticancer drugs such as MMS. Intracellular caspase-3 activity was used to measure cell apoptosis. The dose response effect of MMS to induce intracellular caspase activity was carefully titrated and the concentration that only induces a minimal level of caspase activity was used to test the potentiation effect of PARP inhibitors. Briefly, T47D cells were grown in DMEM/F12 cell culture medium (Hyclone) supplemented with 0.2 U/ml insulin (Genview) and 10% FBS (Hyclone). A day before experiment, 20000 of T47D cells were seeded to each well of a 96-well cell culture plate and maintained at 37° C. and 5% CO2 in a cell culture incubator overnight. On the day of experiment, cell culture medium was removed. One hundred and eighty μl of fresh medium containing 11.1 μg/ml MMS was added to each well and followed by 20 μl medium containing 10 folds of the concentrations of experimental drugs or reference compounds (ADZ2281 and ABT-888). The serial dilutions of the compounds to be tested and the reference compounds were made in a 1:3 and 1:10 fashion in DMSO. The 10-fold compound solutions were made by mixing 10 μl DMSO serial dilution solutions with 90 μl fresh growth medium. Twenty four hours later, the cells in the 96-well plates were centrifuged at 1000 g for 5 min and the supernatants were removed. Fifty μl lysis buffer (10 mM Tris, pH7.5, 0.1M NaCl, 1 mM EDTA, 0.01% Triton X-100) was added to each well and the plates were shaked horizontally for 30 min at 4° C. After centrifugation at 1000 g at 4° C. for 10 min, 20 μl of supernatant was transferred from each well to a corresponding well in a 384-well black plate. Twenty μl of buffer (20 mM PIPES, pH7.4, 4 mM EDTA and 0.2% CHAPS) containing 20 μM fluorescent caspase-3 substrate ((Ac-DEVD)2-R110, AnaSpec Cat #60304-5) was added to each well afterwards. The plates were shaked to uniformly mix the wells and incubated at 37° C. for 3 h. The fluorescence intensity was measured using the following wavelength: ex: 496 nm, em: 520 nm using a fluorescence plate reader (Varioskan Flash, Thermo Fisher Scientific). The caspase-3 activity induced by the compounds was expressed as a relative fluorescence unit (RFU). The obtained fluorescence readings were analyzed using a commercial graphic software (GraphPad Prism 5) and plotted against the Log value of the compound concentrations. The EC50 values were obtained by fitting the data points with the equation of Y (fluorescence reading)=minimal fluorescence reading+(maximal fluorescence reading−minimal fluorescence reading)/(1+10^(Log EC50−Log C)), where C is the concentration of the testing compound.
The synergistic potentiation effect of compounds on MMS induced apoptosis in T47D cells is expressed as EC50 values and listed in Table 2.

Assay [2] deals with SW620 human colorectal cancer cells. Briefly: MTT based cell viability assay: potentiation of the growth inhibiting activity of MMS. As to conditions: Homo sapiens, SW-620, 120 h, read-out: IC50 (nM), potentiation of the growth inhibiting activity of MMS, SW620 cells, 1.7 μg/ml MMS, 5 days (120 hours), MTT.

Take `O=C(c1ccoc1)N1CCN(C(=O)c2cccc(Cn3c(=O)[nH]c(=O)c4ccccc43)c2)CC1` [Example 34, 1-(3-(4-(Furan-3-carbonyl)piperazine-1-carbonyl)benzyl)quinazoline-2,4(1H,3H)-dione]: in assay [1], the EC50 (usually the concentration that produces a half-maximal response) was determined as 104 nM. Also, the IC50 in assay [2] came to 294 nM.
Regarding `O=C(c1ccsc1)N1CCN(C(=O)c2cccc(Cn3c(=O)[nH]c(=O)c4ccccc43)c2)CC1` [Example 35, 1-(3-(4-(Thiophene-3-carbonyl)piperazine-1-carbonyl)benzyl)quinazoline-2,4(1H,3H)-dione], in assay [1], the half-maximal effective concentration (EC50) turned out to be 238 nM. In assay [2], the IC50 came out at 265 nM.
Regarding `O=C(c1cccnc1)N1CCN(C(=O)c2cccc(Cn3c(=O)[nH]c(=O)c4ccccc43)c2)CC1` [Example 36, 1-(3-(4-(Pyridine-3-carbonyl)piperazine-1-carbonyl)benzyl)quinazoline-2,4(1H,3H)-dione], in assay [1], the EC50 is greater than 10000 nM. Also, in assay [2], the IC50 was greater than 10000 nM.
In the case of `O=C(c1cccc(Cn2c(=O)[nH]c(=O)c3ccccc32)c1)N1CCN(C(=O)c2ccccn2)CC1` [Example 37, 1-(3-(4-(Pyridine-2-carbonyl)piperazine-1-carbonyl)benzyl)quinazoline-2,4(1H,3H)-dione], in assay [1], the 50% effective concentration (EC50) was determined as 1910 nM. The IC50 in assay [2] was greater than 10000 nM.
The matching figures for `O=C(c1ccncc1)N1CCN(C(=O)c2cccc(Cn3c(=O)[nH]c(=O)c4ccccc43)c2)CC1` [Example 38, 1-(3-(4-(Pyridine-4-carbonyl)piperazine-1-carbonyl)benzyl)quinazoline-2,4(1H,3H)-dione]: 267 nM and greater than 10000 nM.
For the compound `O=C(c1cccc(Cn2c(=O)[nH]c(=O)c3ccccc32)c1)N1CCC(Oc2ccccc2)CC1` [Example 39, 1-(3-(4-Phenoxypiperidine-1-carbonyl)benzyl)quinazoline-2,4(1H,3H)-dione], the EC50 in assay [1] was 614 nM. For the same compound, the IC50 in assay [2] was 604 nM.
As for `O=C(c1ccco1)N1CCN(C(=O)c2cc(Cn3c(=O)[nH]c(=O)c4ccccc43)ccc2F)CC1` [Example 47, 1-(4-Fluoro-3-(4-(furan-2-carbonyl)piperazine-1-carbonyl)benzyl)quinazoline-2,4(1H,3H)-dione], in assay [1], the EC50 worked out at 2.6 nM. The IC50 in assay [2] came out at 54 nM.
The corresponding values for `O=C(c1ccc(F)c(Cn2c(=O)[nH]c(=O)c3ccccc32)c1)N1CCN(C(=O)c2cccs2)CC1` [Example 52, 1-(6-Fluoro-3-(4-(thiophene-2-carbonyl)piperazine-1-carbonyl)benzyl)quinazoline-2,4(1H,3H)-dione] are 22 nM and 55 nM.
As for `O=C(c1ccc(F)c(Cn2c(=O)[nH]c(=O)c3ccccc32)c1)N1CCN(C(=O)C2CCC2)CC1` [Example 53, 1-(3-(4-(Cyclobutylcarbonyl)piperazine-1-carbonyl)-6-fluorobenzyl)quinazoline-2,4(1H,3H)-dione], the EC50 in assay [1] was 18 nM. Moreover, the IC50 in assay [2] was 59 nM.
Take `O=C(c1ccc(F)c(Cn2c(=O)[nH]c(=O)c3ccccc32)c1)N1CCN(C(=O)c2ccco2)CC1` [Example 54, 1-(6-Fluoro-3-(4-(furan-2-carbonyl)piperazine-1-carbonyl)benzyl)quinazoline-2,4(1H,3H)-dione]: in assay [1], the EC50 worked out at 124 nM. Also, the IC50 in assay [2] was found to be 217 nM.
With `O=C(c1ccc(Cl)c(Cn2c(=O)[nH]c(=O)c3ccccc32)c1)N1CCN(C(=O)C2CCCC2)CC1` [Example 55, 1-(6-Chloro-3-(4-(cyclopentylcarbonyl)piperazine-1-carbonyl)benzyl)quinazoline-2,4(1H,3H)-dione], the EC50 in assay [1] was 20 nM. Besides, the IC50 in assay [2] stood at 89 nM.
Consider `O=C(c1ccc(Cl)c(Cn2c(=O)[nH]c(=O)c3ccccc32)c1)N1CCN(C(=O)C2CCCCC2)CC1` [Example 57, 1-(6-Chloro-3-(4-(cyclohexylcarbonyl)piperazine-1-carbonyl)benzyl)quinazoline-2,4(1H,3H)-dione], for which, in assay [1], the EC50 is 22 nM. Also, the IC50 in assay [2] was determined as 46 nM.
On to `O=C(c1ccc(Cl)c(Cn2c(=O)[nH]c(=O)c3ccccc32)c1)N1CCN(c2ccccn2)CC1` [Example 58, 1-(6-Chloro-3-(4-(pyridin-2-yl)piperazine-1-carbonyl)benzyl)quinazoline-2,4(1H,3H)-dione], for which, in assay [1], the EC50 was 108 nM. For the same compound, the IC50 in assay [2] amounted to 171 nM.
Consider `O=C(c1cccc(Cn2c(=O)[nH]c(=O)c3ccccc32)c1Cl)N1CCN(C(=O)C2CCCC2)CC1` [Example 59, 1-(2-Chloro-3-(4-(cyclopentylcarbonyl)piperazine-1-carbonyl)benzyl)quinazoline-2,4(1H,3H)-dione], for which the EC50 in assay [1] was greater than 10000 nM. Also, the IC50 in assay [2] is greater than 10000 nM.
With `O=C(c1cccc(Cn2c(=O)[nH]c(=O)c3ccccc32)c1Cl)N1CCN(c2ncccn2)CC1` [Example 60, 1-(2-Chloro-3-(4-(pyrimidin-2-yl)piperazine-1-carbonyl)benzyl)quinazoline-2,4(1H,3H)-dione], in assay [1], the concentration giving a half-maximal response (EC50) was greater than 10000 nM. The IC50 in assay [2] is greater than 10000 nM.
Regarding `O=C(c1cccc(Cn2c(=O)[nH]c(=O)c3ccccc32)c1F)N1CCN(c2ncccn2)CC1` [Example 61, 1-(2-Fluoro-3-(4-(pyrimidin-2-yl)piperazine-1-carbonyl)benzyl)quinazoline-2,4(1H,3H)-dione], the EC50 in assay [1] came to 17 nM. Besides, the IC50 in assay [2] worked out at 61 nM.
As to `O=C(c1cccc(Cn2c(=O)[nH]c(=O)c3ccccc32)c1F)N1CCN(C(=O)C2CCCC2)CC1` [Example 62, 1-(3-(4-(Cyclopentylcarbonyl)piperazine-1-carbonyl)-2-fluorobenzyl)quinazoline-2,4(1H,3H)-dione], in assay [1], the EC50 was 379 nM. In addition, the IC50 in assay [2] came out at 816 nM.
Consider `O=C(c1cc(F)cc(Cn2c(=O)[nH]c(=O)c3ccccc32)c1)N1CCN(c2ncccn2)CC1` [Example 63, 1-(5-Fluoro-3-(4-(pyrimidin-2-yl)piperazine-1-carbonyl)benzyl)quinazoline-2,4(1H,3H)-dione], for which the EC50 in assay [1] came out at 15 nM. Also, in assay [2], the IC50 turned out to be 50 nM.
As for `O=C(c1cc(F)cc(Cn2c(=O)[nH]c(=O)c3ccccc32)c1)N1CCN(C(=O)C2CCCC2)CC1` [Example 64, 1-(3-(4-(Cyclopentylcarbonyl)piperazine-1-carbonyl)-5-fluorobenzyl)quinazoline-2,4(1H,3H)-dione], the EC50 in assay [1] was found to be 51 nM. For the same compound, the IC50 in assay [2] stood at 177 nM.
As to `O=C(c1cc(Cn2c(=O)[nH]c(=O)c3ccccc32)ccc1Cl)N1CCN(C(=O)C2CCCCC2)CC1` [Example 66, 1-(4-Chloro-3-(4-(cyclohexylcarbonyl)piperazine-1-carbonyl)benzyl)quinazoline-2,4(1H,3H)-dione], the EC50 in assay [1] was 604 nM. Further, the IC50 in assay [2] worked out at 991 nM.
For the compound `O=C(c1ccc(Cn2c(=O)[nH]c(=O)c3ccccc32)o1)N1CCN(C(=O)C2CCCC2)CC1` [Example 67, 1-((2-(4-(Cyclopentylcarbonyl)piperazine-1-carbonyl)furan-5-yl)methyl)quinazoline-2,4(1H,3H)-dione], the EC50 in assay [1] worked out at 4820 nM. Further, the IC50 in assay [2] turned out to be 2050 nM.
With `O=C(c1ccc(Cn2c(=O)[nH]c(=O)c3ccccc32)o1)N1CCN(c2nsc3ccccc23)CC1` [Example 68, 1-((2-(4-(Benzo[d]isothiazol-3-yl)piperazine-1-carbonyl)furan-5-yl)methyl)quinazoline-2,4(1H,3H)-dione], the EC50 in assay [1] was 635 nM. For the same compound, the IC50 in assay [2] worked out at 673 nM.
For the compound `O=C(c1cccc(Cn2c(=O)[nH]c(=O)c3ccccc32)n1)N1CCN(c2ncccn2)CC1` [Example 71, 1-((2-(4-(Pyrimidin-2-yl)piperazine-1-carbonyl)pyridin-6-yl)methyl)quinazoline-2,4(1H,3H)-dione], in assay [1], the EC50 stood at 67 nM. The IC50 in assay [2] stood at 70 nM.
